These results are taken from US4764589A, “[N-alpha-acyl,8-glycine, des-19-leucine]-calcitonin” (Rorer Pharmaceutical Corporation, priority 1987, dated 1988).

Where a SMILES comes first, the peptide text is derived from it. Bridges are numbered along the chain shown (N, C = ends). The star is where a group is joined. Propionyl = CCC(=O)*

The assay deals with serum calcium concentration.

Procedure: Biological Assay of Calcitonin Analogs in Vivo
The biological potency of [N-alpha-Propionyl, 8-glycine, des-19-leucine] salmon calcitonin was determined by comparing the reduction of serum calcium concentration which followed administration by graded doses of [N-alpha-Propionyl, Gly^8, des-Leu^19 ]-SCT and synthetic salmon calcitonin standard. Rats were divided into four groups of seven animals, and each group was assigend at random to a dose of standard or test solution. Low and high doses were chosen from the linear portion of the dose-response curve. For the salmon calcitonin standard, the values were 0.7 and 2.1 ng. peptide/100 g. BW. Peptides were given by subcutaneous injection (0.2 ml/100 g. BW) and blood was withdrawn 1 hour later for serum calcium determination. Sera are processed and analyzed within two hours of collection.

As for `CCC(=O)N[C@H]1CSSC[C@@H](C(=O)NCC(=O)N[C@@H](CC(C)C)C(=O)NCC(=O)N[C@@H](CCCCN)C(=O)N[C@@H](CC(C)C)C(=O)N[C@@H](CO)C(=O)N[C@@H](CCC(N)=O)C(=O)N[C@@H](CCC(=O)O)C(=O)N[C@@H](CC(C)C)C(=O)N[C@@H](Cc2c[nH]cn2)C(=O)N[C@@H](CCCCN)C(=O)N[C@@H](CCC(N)=O)C(=O)N[C@H](C(=O)N[C@@H](Cc2ccc(O)cc2)C(=O)N2CCC[C@H]2C(=O)N[C@@H](CCCNC(=N)N)C(=O)N[C@H](C(=O)N[C@@H](CC(N)=O)C(=O)N[C@H](C(=O)NCC(=O)N[C@@H](CO)C(=O)NCC(=O)N[C@H](C(=O)N2CCC[C@H]2C(N)=O)[C@@H](C)O)[C@@H](C)O)[C@@H](C)O)[C@@H](C)O)NC(=O)[C@H]([C@@H](C)O)NC(=O)[C@H](CO)NC(=O)[C@H](CC(C)C)NC(=O)[C@H](CC(N)=O)NC(=O)[C@H](CO)NC1=O` [[N alpha-propionyl, 8-glycine, des-19-leucine] salmon calcitonin] (Propionyl-CSNLSTCGLGKLSQELHKQTYPRTNTGSGTP-NH2; disulfide 1-7), for the setting “rat, in vivo, sc”, the biological potency is recorded as 9,700 IU/mg.
With `CC(C)C[C@H](NC(=O)[C@H](CCCCN)NC(=O)CNC(=O)[C@H](CC(C)C)NC(=O)[C@@H](NC(=O)[C@@H]1CSSC[C@H](N)C(=O)N[C@@H](CO)C(=O)N[C@@H](CC(N)=O)C(=O)N[C@@H](CC(C)C)C(=O)N[C@@H](CO)C(=O)N[C@@H]([C@@H](C)O)C(=O)N1)C(C)C)C(=O)N[C@@H](CO)C(=O)N[C@@H](CCC(N)=O)C(=O)N[C@@H](CCC(=O)O)C(=O)N[C@@H](CC(C)C)C(=O)N[C@@H](Cc1c[nH]cn1)C(=O)N[C@@H](CCCCN)C(=O)N[C@@H](CC(C)C)C(=O)N[C@@H](CCC(N)=O)C(=O)N[C@H](C(=O)N[C@@H](Cc1ccc(O)cc1)C(=O)N1CCC[C@H]1C(=O)N[C@@H](CCCNC(=N)N)C(=O)N[C@H](C(=O)N[C@@H](CC(N)=O)C(=O)N[C@H](C(=O)NCC(=O)N[C@@H](CO)C(=O)NCC(=O)N[C@H](C(=O)N1CCC[C@H]1C(N)=O)[C@@H](C)O)[C@@H](C)O)[C@@H](C)O)[C@@H](C)O` [standard salmon calcitonin, Salmon calcitonin], the “biological potency of the standard, independently determined” value (standard salmon calcitonin used in the assay) was “greater than 4,000 IU/mg”.
